Reference: US20140213536A1, “MARKETING N-METHY[…] RELATED SUBSTANCES FOR USE IN TREATING/ LESSENING THE OCCURRENCE OF HOT FLASHES RELATED TO MENOPAUSE” (DSM IP ASSETS B.V., priority 2013, published 2014)
Several values for one entry are separate records, joined by “and”; a condition that tells them apart may be missing. Identical values can stand only once.

Key:
[1] = test system: ovariectomized female rats; assay: Behavioral measures of mood overall (open field, elevated plus maze, swim test); type: in vivo, rat
Protocol: Animal Handling. Rats were handled each day for four days prior to behavioral analysis. This involved gently removing the animal from its cage and holding it in the experimenter's lap on a towel without restraint, allowing the animal to explore. This acclimatized the animal to handling by experimenters. All behavioral testing occurred in a room adjacent to the colony room, and the animals were acclimated to the test room overnight prior to testing.
(§1) Open Field Task. Animals were tested in the open field to measure overall locomotor activity and basal anxiety state. In the open field test each rat is placed in a novel environment consisting of an arena measuring 100×100×40 cm. Rats were placed in the middle of the chamber and behavior in the open field was recorded for thirty minutes with a digital camera and measured by software (AnyMaze, Stoelting Co., Inc.). The following parameters were analyzed: a) total distance traveled; b) time in center; c) center entries; and d) number of fecal boli excreted.
Elevated Plus Maze Task. […] Each rat was placed in the central platform facing one of the open arms, and its behavior was recorded during a 5-min testing period with video capture software (AnyMaze). The amount of time spent on open and closed arms and the number of entries into open and closed arms were assessed with video analysis (AnyMaze). […]

[2] = target: serotonin reuptake transporter (SERT) (Homo sapiens, UniProt P31645); settings: FIG. 1C, Powell et al., 2008, cited from earlier work
Sequence of serotonin reuptake transporter (SERT) (P31645 whole entry, species assumed): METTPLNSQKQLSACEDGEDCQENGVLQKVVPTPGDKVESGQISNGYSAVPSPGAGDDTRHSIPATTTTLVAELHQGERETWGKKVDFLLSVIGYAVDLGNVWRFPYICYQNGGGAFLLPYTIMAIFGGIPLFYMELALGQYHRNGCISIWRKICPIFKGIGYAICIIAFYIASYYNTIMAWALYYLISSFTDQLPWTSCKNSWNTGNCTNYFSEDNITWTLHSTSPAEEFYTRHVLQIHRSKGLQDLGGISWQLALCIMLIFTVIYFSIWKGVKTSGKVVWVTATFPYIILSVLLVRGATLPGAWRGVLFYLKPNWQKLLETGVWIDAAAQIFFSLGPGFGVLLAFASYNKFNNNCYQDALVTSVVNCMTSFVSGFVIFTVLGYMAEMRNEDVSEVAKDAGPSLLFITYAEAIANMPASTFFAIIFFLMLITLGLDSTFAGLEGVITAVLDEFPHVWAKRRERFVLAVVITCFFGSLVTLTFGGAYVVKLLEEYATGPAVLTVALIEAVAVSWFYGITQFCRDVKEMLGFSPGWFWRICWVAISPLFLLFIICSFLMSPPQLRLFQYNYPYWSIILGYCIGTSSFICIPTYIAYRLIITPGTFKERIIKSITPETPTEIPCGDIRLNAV

[3] = test system: ovariectomized female rats; assay: Elevated plus maze task (anxiety-like behaviors); type: in vivo, rat
Protocol: Elevated Plus Maze Task. Animals were tested on the elevated plus maze to measure anxiety-related behavior. The plus-maze is elevated ˜85 cm above the floor and consisted of two open and two closed arms of the same size (50×10 cm). The closed arms were surrounded by walls 40 cm high, and the arms were constructed of black acrylic slabs that radiate from a central platform (10×10 cm) to form a plus sign (Lafayette Instruments, Lafayette, Ind.). Each rat was placed in the central platform facing one of the open arms, and its behavior was recorded during a 5-min testing period with video capture software (AnyMaze). The amount of time spent on open and closed arms and the number of entries into open and closed arms were assessed with video analysis (AnyMaze). In addition, the animals were scored live by the experimenter for time spent rearing, grooming, and number of stretch-attend postures and head dips over the edge of the open arm.

[4] = test system: ovariectomized female rats; assay: Forced swim test (depressive-like behaviors); type: in vivo, rat
Protocol: Swim Test. Each rat was examined in the swim test for depressive-like behaviors. The test was performed over two consecutive days since it is a measure of an adaptive response to a perceived inescapable situation. The first test establishes to the animal that it is an inescapable situation, and the second test measures the animal's degree of passive coping derived from an unwillingness to maintain effort in an inescapable situation. Typical antidepressants limit the amount of passive coping (immobility) and promote the amount of active coping (swimming/climbing). On day one (0800 h to 1300 h), animals were acclimated to the test by placing them in a plexiglass cylindrical container (45 cm×20 cm) filled with 30 cm of fresh water (25° C.) for fifteen minutes, after which they were toweled dried and returned to their home cage. On day two (24 hrs later) the test was performed for a total swim time of five minutes, after which the rats were toweled dried and returned to their home cage. Both trials were recorded by a digital video camera was secured to the ceiling above the cylinders and connected to a laptop. Total time spent swimming and immobile was measured real-time by behavioral software (Anymaze, Stoelting Co.), and scored post hoc by a blinded experimenter from captured video. […] Immobility was defined as absence of any movement except for slight movements necessary for the animal to keep its head above water. Climbing was defined as rapid movement of the forelimbs that broke the surface of the water.

[5] = test system: ovariectomized female rats; assay: Open field task (locomotion, anxiety-like behaviors); type: in vivo, rat
Protocol: as §1

5-HT7 receptor [6] = target: T1, 5-HT7 receptor (Homo sapiens, UniProt P34969); settings: 5-HT7 vs other 5-HT receptors; cited from earlier work
T1 sequence (P34969 whole entry): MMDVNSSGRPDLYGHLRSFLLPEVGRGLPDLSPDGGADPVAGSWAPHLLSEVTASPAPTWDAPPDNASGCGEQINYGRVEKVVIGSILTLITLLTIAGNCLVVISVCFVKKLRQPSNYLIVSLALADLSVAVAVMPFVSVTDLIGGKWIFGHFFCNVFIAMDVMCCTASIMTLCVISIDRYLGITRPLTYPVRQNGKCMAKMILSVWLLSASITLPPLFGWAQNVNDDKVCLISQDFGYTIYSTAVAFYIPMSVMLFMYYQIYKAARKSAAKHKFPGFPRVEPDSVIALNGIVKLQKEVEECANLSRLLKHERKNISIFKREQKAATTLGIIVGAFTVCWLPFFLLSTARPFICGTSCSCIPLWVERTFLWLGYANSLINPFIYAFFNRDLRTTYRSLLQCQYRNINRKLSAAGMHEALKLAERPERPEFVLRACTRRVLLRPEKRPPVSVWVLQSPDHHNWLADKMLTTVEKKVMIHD

[7] = Circulating (plasma) estradiol in ovariectomized rats; type: in vivo, rat; settings: dietary NMS; for plasma estradiol level (FIG. 5): first study, estradiol implant as positive control
Source text: (§2) The animals arrived at approximately 60 days of age, and were placed on specific diets throughout the study (to approximately 160 days of age). The diets were formulated and provided by Dyets Inc. (Bethlehem, Pa.) and are based on a modified AIN-93G diet. These diets were fed ad libitum. Two weeks after arrival, at approximately 80 days of age, the animals were ovariectomized, allowed to recover for three weeks, and then placed on defined diets. In the first study, these diets contained 0, 0.08, 0.48, 3.2, 18.5, 185, or 3700 μg/kg/day of NMS dihydrochloride (FIG. 2). In the second, follow-up study, the diets contained no NMS (control), NMS oxalate (18.5 or 55.5 μg/kg/d), or milled Zanthoxylum seed in quantities that supplied NMS-glucoside at equivalent doses (18.5 or 55.5 μg/kg/d; FIG. 8). The NMS and NMS-glucoside content was verified using liquid chromatography with mass spectrometric detection. Extraction methods were similar to those of Yanase et al., 2010.
(§3) All diets were fed for 2 weeks prior to the first behavioral assessment (open field). Positive control animals received a 5.0 mm subcutaneous silastic capsule implant packed with a crystalline 17β-estradiol and cholesterol mixture (25%, 0.058 inch inner diameter, 0.077 inch outer diameter; Dow Corning #508-006). Animals were then examined for locomotor activity (open field) and in two behavioral assays to assess mood (elevated plus maze and swim test) separated by two weeks in-between each assay. Two weeks after the final behavioral task (swim test), the animals were anesthetized and their physiological response to an experimentally-induced hot flash was tested. After the temperature monitoring was complete, tissue was harvested while the animals were still anesthetized.

[8] = test system: ovariectomized female rats; assay: Uterine weight (uterotrophic effect) in ovariectomized rats; type: in vivo, rat; settings: vs ovariectomized controls; for uterine weight (FIG. 6D): first study, after 80 days of supplementation; for uterine weight / uterine growth (FIG. 11A): follow-up study
Source text: as §2, §3

[9] = Body weight of ovariectomized rats on diets; type: in vivo, rat; settings: for body weight throughout experiment (FIG. 6A): vs control diet / all other groups
Source text: as §2, §3

5-HT7 receptor [10] = target: T1, 5-HT7 receptor; settings: FIG. 1B, cited from earlier work
[11] = test system: ovariectomized female rats; assay: CGRP-induced hot flash / skin temperature in ovariectomized rats; type: in vivo, rat; settings: for CGRP response of skin temperature above baseline (representative data, FIG. 3) / basal skin temperature (representative data, FIG. 3): NMS 0.48 or 18.5 ug/kg/d through diet, estradiol subcutaneous; for CGRP response of skin temperature above baseline (representative data, FIG. 3) / basal skin temperature (representative data, FIG. 3) / CGRP-induced hot flash response (repeated measures ANOVA, FIG. 9A): vs untreated controls; for CGRP-induced hot flash response (repeated measures ANOVA, FIG. 9A): seed supplying NMS-glucoside or NMS oxalate 18.5 or 55.5 μg/kg/d in diet, estradiol implant
Source text: as §2, §3
Ovariectomy. Two weeks after arrival, each animal was anesthetized via isoflurane inhalation and the dorsal mid-lumbar area was shaved and swabbed with surgical scrub, iodine and alcohol. The animal was then placed on a warm heat pad covered by a sterile cloth/pad in ventral recumbency with tail towards surgeon. A 2-3 cm dorsal midline skin incision was made halfway between the caudal edge of the ribcage and the base of the tail. A single transverse incision of 5.5-10 mm long was made into the muscle wall on both the right and left sides approximately ⅓ of the distance between the spinal cord and the ventral midline. The ovary and the oviduct were exteriorized through the muscle wall. A hemostat was clamped around the uterine vasculature between the oviduct and uterus and the uterine vasculature was ligated with dissolvable suture. Each ovary and part of the oviduct was removed with single cuts through the oviducts near the ovary. The hemostat was removed, and the remaining tissue replaced into the peritoneal cavity. The ovary on the other side was removed in a similar manner. The muscle incision is not sutured. Sterile wound clips were used to close the skin incision. Animals were monitored daily for signs of infection or morbidity.
Hot Flash Studies. Animals were anesthetized with intraperitoneal co-injection of urethane (750 mg/kg) and α-chloralose (60 mg/kg). […] Thermistor probes (ADI Instruments, Colorado Springs, Colo.) were taped to the plantar surfaces of one hind foot. Forty minutes later, after anesthesia-induced hypothermia had stabilized, the basal skin temperature was recorded. Temperature monitoring then occurred at 5-second intervals throughout the remainder of the experiment. Calcitonin gene related peptide (CGRP; 10 μg/kg, i.v.) dissolved in saline was then injected via the tail vein. A maximum of eight animals were tested at the same time due to limitations on instrumental throughput. Cage mates were always tested together in order to avoid the stresses of single-housing and the potential stress hormone effects on body temperature. Therefore only four groups could be tested within any one given day.

## CNCCc1c[nH]c2ccc(O)cc12 [NMS, N-methylserotonin]
[1]; first study, dietary NMS
  behavioral measures of mood (FIG. 7): did not alter behavioral measures of mood
[1]; follow-up study
  behavioral measures of mood / mood-related behaviors (FIG. 10): did not alter behavioral measures of mood
[2]
  fold lower affinity than Prozac at the serotonin reuptake transporter: 100 fold
[2]; read-out: IC50 of serotonin reuptake transporter inhibition
  IC50: ~500 nM
[3]; first study
  time spent in the open arms of elevated plus maze (FIG. 7D): no differences amongst groups
[3]; follow-up study
  effect of treatment in the elevated plus maze (FIG. 10B): No significant effects of treatment
[4]; first study
  time spent climbing, second session of forced swim test (FIG. 7B): no significant differences amongst groups
[4]; follow-up study
  effect of treatment in the forced swim test (FIG. 10C): No significant effects of treatment
[5]; first study, 30 minute test
  total distance traveled in open field (FIG. 7C): no differences across groups
[5]; follow-up study
  effect of treatment in the open field (FIG. 10A): No significant effects of treatment
5-HT7 receptor [6]
  binding preference among 5-HT receptors: binds preferentially to 5-HT7 receptors over other 5-HT receptors
[7]
  plasma estradiol level (FIG. 5): increased plasma estradiol in a dose-dependent manner
[7]; ovariectomized rats
  non-uterine estradiol secretion: tripled
[8]
  uterine weight (FIG. 6D): did not alter uterine weight
  uterine weight / uterine growth (FIG. 11A): did not alter uterine weight
[9]; first study, throughout or at the end of the study
  weight change as a percentage of original weight (FIG. 6B, C): not different between dietary treatments
[9]; first study
  body weight throughout experiment (FIG. 6A): did not alter body weight
[9]; follow-up study
  overall weight change as a percentage of original weight at the end of the study (FIG. 11C): not different between dietary treatments
[9]; follow-up study, vs controls
  weight change as a percentage of original weight over time (FIG. 11B): different between controls and pepper supplemented or NMS supplemented groups
5-HT7 receptor [10]
  concentration of maximal activation of the 5-HT7 receptor: 50 to 100 nM
5-HT7 receptor [10]; read-out: EC50 of 5-HT7 receptor activation
  EC50: ~22 nM and 22 nM
[11]; body surface area (BSA) method, first study
  human equivalent dose (HED) for thermoregulatory effects: 150 to 840 µg/day
[11]; first study, 18.5 ug/kg/d dietary NMS vs untreated controls
  basal skin temperature (FIG. 4): decreased basal skin temperature
[11]; first study
  CGRP response of skin temperature above baseline (representative data, FIG. 3): lower CGRP responses
  basal skin temperature (representative data, FIG. 3): lower basal temperatures
[11]; first study, dietary NMS
  CGRP-induced hot flash response, baseline corrected (repeated measures ANOVA, FIG. 4): blunted the CGRP-induced hot flash response
[11]; follow-up study
  CGRP-induced hot flash response (repeated measures ANOVA, FIG. 9A): blunted the CGRP-induced hot flash response

## CNCCc1c[nH]c2ccc(O[C@@H]3O[C@H](CO)[C@@H](O)[C@H](O)[C@H]3O)cc12 [NMS-glucoside, N-methylserotonin 5-O-6-glucoside]
[11]; BSA calculation, follow-up study, NMS-glucoside in milled seed
  human equivalent dose (HED): 150 to 540 µg/day

## C[C@]12CC[C@@H]3c4ccc(O)cc4CC[C@H]3[C@@H]1CC[C@@H]2O [estradiol, 17β-estradiol, reference compound]
[4]; first study
  time immobile, second session of forced swim test (FIG. 7A): spent less time immobile
[7]
  plasma estradiol level (FIG. 5): highest levels of plasma estradiol
[8]
  uterine weight (FIG. 6D): significantly higher uterine weights
  uterine weight / uterine growth (FIG. 11A): significantly higher uterine weights
[9]; first study
  body weight throughout experiment (FIG. 6A): significantly lower body weight
[9]; follow-up study, vs all other groups
  body weight throughout the experiment (FIG. 11B): significantly lower body weight
[11]; first study
  CGRP response of skin temperature above baseline (representative data, FIG. 3): lowest responses to CGRP
  basal skin temperature (representative data, FIG. 3): lowest basal temperatures
[11]; follow-up study
  CGRP-induced hot flash response (repeated measures ANOVA, FIG. 9A): blunted the CGRP-induced hot flash response
